From article PMC8286840, “Identifying SARS-CoV-2 antiviral compounds by screening for small molecule inhibitors of Nsp3 papain-like protease” (Biochemical Journal, 2021)
Where a name gives a salt, the structure may show the parent alone. Read-outs that look alike come from different tables or passages of the source.

Assays:
[1] = target: T1, SARS-CoV-2 PLpro (nsp3 1564–1878) (Severe acute respiratory syndrome coronavirus 2, UniProt P0DTD1); assay: biochemical; parameters: FRET-quenched peptide (Pro3) cleavage by PLpro, 10 min pre-incubation, slope over 20 min, normalised to no-compound control; details: read-out: % of control remaining
[2] = target: T1, SARS-CoV-2 PLpro (nsp3 1564–1878); assay: biochemical; parameters: FRET-quenched peptide (Pro3) cleavage by PLpro, 10 min pre-incubation, slope over 20 min, normalised to no-compound control; details: read-out: % of control remaining; remark: listed apart in the source

O=S(=O)(CC1CS1)c1ccc(Oc2ccccc2)cc1 (stereo not shown) [SB-3CT]
remaining activity at 1.25 µM ([1]; Well no.=8478, low concentration screen): 95.9%
remaining activity at 3.75 µM ([2]; Well no.=8478, high concentration screen): 91.4%

Oc1ccc(-c2c(-c3ccccc3)nn3c(C(F)(F)F)cc(C(F)(F)F)nc23)cc1 [PHTPP]
remaining activity at 1.25 µM [1]: 103%
remaining activity at 3.75 µM [2]: 101%

Cc1ccc([N+](=O)[O-])cc1S(=O)(=O)N(C)/N=C/c1cnc2ccc(Br)cn12 [PIK 75]
remaining activity at 1.25 µM ([1]; Well no.=2993, low concentration screen): 96.4%
remaining activity at 3.75 µM ([2]; Well no.=2993, high concentration screen): 96.1%

Nc1ccc(S(=O)(=O)Nc2ccnn2-c2ccccc2)cc1 [Sulfaphenazole]
remaining activity at 1.25 µM ([1]; Well no.=1404, low concentration screen): 104%
remaining activity at 1.25 µM ([1]; Well no.=8418, low concentration screen): 85.5%
remaining activity at 3.75 µM ([2]; Well no.=1404, high concentration screen): 99.3%
remaining activity at 3.75 µM ([2]; Well no.=8418, high concentration screen): 85.2%

O=C(O)CCC[C@H](O)\C=C/C=C/C=C/[C@H](O)C/C=C\CCCCCO [20-Hydroxy-leukotriene B4]
remaining activity at 1.25 µM ([1]; Well no.=4425, low concentration screen): 101%
remaining activity at 3.75 µM ([2]; Well no.=4425, high concentration screen): 103%

O=C(O)c1ccc(O)c2ncccc12 [IOX1]
remaining activity at 1.25 µM ([1]; Well no.=5529, low concentration screen): 102%
remaining activity at 3.75 µM ([2]; Well no.=5529, high concentration screen): 104%

O=C(O)/C=C/c1ccc(Cn2ccnc2)cc1 [Ozagrel]
remaining activity at 1.25 µM ([1]; Well no.=1886, low concentration screen): 91.5%
remaining activity at 3.75 µM ([2]; Well no.=1886, high concentration screen): 93.9%

CC(C)(C)c1ccc(C(=O)NC(=S)Nc2ccc(N)cc2)cc1 [Tenovin-3]
remaining activity at 1.25 µM ([1]; Well no.=7072, low concentration screen): 102%
remaining activity at 3.75 µM ([2]; Well no.=7072, high concentration screen): 97.4%

CC(C)C[C@H](NC(=O)[C@@H](COC(C)(C)C)NC(=O)[C@H](Cc1ccc(O)cc1)NC(=O)[C@H](CO)NC(=O)[C@H](Cc1c[nH]c2ccccc12)NC(=O)[C@H](Cc1cnc[nH]1)NC(=O)[C@@H]1CCC(=O)N1)C(=O)N[C@@H](CCCNC(=N)N)C(=O)N1CCC[C@H]1C(=O)NNC(N)=O [Goserelin]
remaining activity at 1.25 µM ([1]; Well no.=1624, low concentration screen): 98.9%
remaining activity at 3.75 µM ([2]; Well no.=1624, high concentration screen): 101%

COc1ccc(-c2cc(=O)c3c(O)c(OC)c(OC)cc3o2)cc1O [5-hydroxy-2-(3-hydroxy-4-methoxyphenyl)-6,7-dimethoxy-4H-chromen-4-one]
remaining activity at 1.25 µM ([1]; Well no.=5983, low concentration screen): 98.6%
remaining activity at 3.75 µM ([2]; Well no.=5983, high concentration screen): 95.3%

O=C1C[C@@H](c2ccc(O)c(O)c2)Oc2c1ccc(O[C@@H]1O[C@H](CO)[C@@H](O)[C@H](O)[C@H]1O)c2O [Flavanomarein]
remaining activity at 1.25 µM ([1]; Well no.=3805, low concentration screen): 96.3%
remaining activity at 3.75 µM ([2]; Well no.=3805, high concentration screen): 100%

c1ccc2c(c1)CCCC2C1=NCCN1 (stereo not shown) [Tetrahydrozoline (hydrochloride)]
remaining activity at 1.25 µM ([1]; Well no.=8099, low concentration screen): 96.6%
remaining activity at 3.75 µM ([2]; Well no.=8099, high concentration screen): 91.5%

C[C@@H]1C/C=C/C=C/C=C/C=C/[C@H](O[C@@H]2O[C@H](C)[C@@H](O)[C@H](N)[C@@H]2O)C[C@@H]2O[C@](O)(C[C@@H](O)C[C@H]3O[C@@H]3/C=C/C(=O)O1)C[C@H](O)[C@H]2C(=O)O [Pimaricin]
remaining activity at 1.25 µM ([1]; Well no.=3703, low concentration screen): 96.5%
remaining activity at 3.75 µM ([2]; Well no.=3703, high concentration screen): 102%

Cc1ccc(C(=O)c2ccc(CC(=O)O)n2C)cc1 [Tolmetin]
remaining activity at 1.25 µM ([1]; Well no.=1998, low concentration screen): 101%
remaining activity at 3.75 µM ([2]; Well no.=1998, high concentration screen): 101%

CN1CCC(=C2c3ccccc3C=Cc3ccccc32)CC1 [Cyproheptadine (hydrochloride sesquihydrate)]
remaining activity at 1.25 µM ([1]; Well no.=6185, low concentration screen): 97.8%
remaining activity at 3.75 µM ([2]; Well no.=6185, high concentration screen): 95.9%

O=c1cc(-c2ccccc2)[nH]c2nc(Cl)ccc12 [7-Chloro-4-hydroxy-2-phenyl-1,8-naphthyridine]
remaining activity at 1.25 µM ([1]; Well no.=324, low concentration screen): 98.8%
remaining activity at 3.75 µM ([2]; Well no.=324, high concentration screen): 99.1%

CS(=N)(=O)CC[C@H](N)C(=O)O (stereo partly drawn) [L-Methionine sulfoximine]
remaining activity at 1.25 µM ([1]; Well no.=1120, low concentration screen): 96.3%
remaining activity at 3.75 µM ([2]; Well no.=1120, high concentration screen): 99.8%

CC1=C[C@]23C(=O)[C@@H](C=C(COC(=O)c4ccccc4)[C@@H](O)[C@]2(O)[C@H]1OC(=O)c1ccccc1)[C@H]1[C@@H](C[C@H]3C)C1(C)C [Ingenol 3,20-dibenzoate]
remaining activity at 1.25 µM ([1]; Well no.=3363, low concentration screen): 95%
remaining activity at 3.75 µM ([2]; Well no.=3363, high concentration screen): 97.2%

Cc1nc2n(c(=O)c1CCN1CCC(c3noc4cc(F)ccc34)CC1)CCCC2O (stereo not shown) [Paliperidone]
remaining activity at 1.25 µM ([1]; Well no.=8197, low concentration screen): 109%
remaining activity at 3.75 µM ([2]; Well no.=8197, high concentration screen): 99.6%

CC(=O)NCCc1ccc(O)c(O)c1 [N-Acetyldopamine monohydrate]
remaining activity at 1.25 µM ([1]; Well no.=56, low concentration screen): 98.3%
remaining activity at 3.75 µM ([2]; Well no.=56, high concentration screen): 101%

CN1C(=O)CC[C@H]1c1cccnc1 [Cotinine]
remaining activity at 1.25 µM ([1]; Well no.=7163, low concentration screen): 97.7%
remaining activity at 3.75 µM ([2]; Well no.=7163, high concentration screen): 96.3%

CC(C)(Cc1ccc2ccccc2c1)NC[C@@H](O)COc1cccc(Cl)c1C#N [NPS-2143]
remaining activity at 1.25 µM ([1]; Well no.=7036, low concentration screen): 96.4%
remaining activity at 3.75 µM ([2]; Well no.=7036, high concentration screen): 93.8%

COc1cc(Br)c(Nc2nc(-c3c(C)nc4ncccn34)cs2)c(Br)c1 [PTC-209]
remaining activity at 1.25 µM ([1]; Well no.=5643, low concentration screen): 94.3%
remaining activity at 3.75 µM ([2]; Well no.=5643, high concentration screen): 95%

C[C@]12CCC(=O)C=C1CC[C@@H]1[C@@H]2[C@@H](O)C[C@@]2(C)[C@H]1CC[C@]2(O)C(=O)CO [Hydrocortisone]
remaining activity at 1.25 µM ([1]; Well no.=562, low concentration screen): 101%
remaining activity at 1.25 µM ([1]; Well no.=2212, low concentration screen): 93%
remaining activity at 1.25 µM ([1]; Well no.=6439, low concentration screen): 99.3%
remaining activity at 1.25 µM ([1]; Well no.=7331, low concentration screen): 93.2%
remaining activity at 3.75 µM ([2]; Well no.=562, high concentration screen): 101%
remaining activity at 3.75 µM ([2]; Well no.=2212, high concentration screen): 96%
remaining activity at 3.75 µM ([2]; Well no.=6439, high concentration screen): 102%
remaining activity at 3.75 µM ([2]; Well no.=7331, high concentration screen): 93.7%

CN1CCC(c2c[nH]c3ccc(O)cc23)CC1 [BRL 54443]
remaining activity at 1.25 µM ([1]; Well no.=5171, low concentration screen): 98%
remaining activity at 1.25 µM ([1]; Well no.=6945, low concentration screen): 103%
remaining activity at 3.75 µM ([2]; Well no.=5171, high concentration screen): 89.8%
remaining activity at 3.75 µM ([2]; Well no.=6945, high concentration screen): 93.5%

O=C(/C=C/c1ccc(O)c(O)c1)c1ccc(O[C@@H]2O[C@H](CO)[C@@H](O)[C@H](O)[C@H]2O)c(O)c1O [Marein]
remaining activity at 1.25 µM ([1]; Well no.=3731, low concentration screen): 91.7%
remaining activity at 3.75 µM ([2]; Well no.=3731, high concentration screen): 95.9%

CC(C)(C)NC[C@H](O)COc1nsnc1N1CCOCC1 [(S)-Timolol (Maleate)]
remaining activity at 1.25 µM ([1]; Well no.=7667, low concentration screen): 92.8%
remaining activity at 3.75 µM ([2]; Well no.=7667, high concentration screen): 94.8%

O=c1cc(N2CCOCC2)oc2c(-c3cccc4c3sc3ccccc34)cccc12 [NU7441 (KU-57788)]
remaining activity at 1.25 µM ([1]; Well no.=4926, low concentration screen): 99.2%
remaining activity at 3.75 µM ([2]; Well no.=4926, high concentration screen): 94.3%

COC[C@@H](c1ccc(C(F)(F)F)cc1)N1CCN(C2(C)CCN(C(=O)c3c(C)ncnc3C)CC2)C[C@@H]1C [Vicriviroc (maleate)]
remaining activity at 1.25 µM ([1]; Well no.=8655, low concentration screen): 106%
remaining activity at 3.75 µM ([2]; Well no.=8655, high concentration screen): 103%

C[n+]1cccc(C(=O)O)c1
remaining activity at 1.25 µM ([1]; Well no.=3390, low concentration screen): 94.5%
remaining activity at 3.75 µM ([2]; Well no.=3390, high concentration screen): 99.5%

COC(c1ccccc1)(c1ccccc1)[C@H](Oc1nc(C)cc(C)n1)C(=O)O [Ambrisentan]
remaining activity at 1.25 µM ([1]; Well no.=5270, low concentration screen): 94.8%
remaining activity at 1.25 µM ([1]; Well no.=6365, low concentration screen): 102%
remaining activity at 3.75 µM ([2]; Well no.=5270, high concentration screen): 92.5%
remaining activity at 3.75 µM ([2]; Well no.=6365, high concentration screen): 98.8%

Cc1cc(Cc2cc(C)cc(C(C)(C)C)c2O)c(O)c(C(C)(C)C)c1 [GERI-BP002-A]
remaining activity at 1.25 µM ([1]; Well no.=3701, low concentration screen): 97.3%
remaining activity at 3.75 µM ([2]; Well no.=3701, high concentration screen): 101%
